Experimental data reported in US9340549B2, “Oxazolidinone compounds and derivatives thereof” (priority 2012, dated 2016).
Read-outs that look alike come from different tables or passages of the source.

Legend:
[1] = biological target: 6×HIS-tankyrase 1 (1091-1325) (Homo sapiens (Human), UniProt O95271); test: biochemical; type: biochemical; conditions: […] enzyme, 400 nM NAD, 60 minutes at room temperature; read-out: TNKS1 IP IC50
Axin2 in SW480 cells = test: cells; type: cell-based; conditions: read-out: Axin2 384 IF EC50 IP
How it was run: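 SW480 cells treated 24 h at 37° C (0.5% DMSO final), fixed/permeabilized, immunostained for Axin2. ArrayScan imaging quantified ring-spot intensity; Axin2 accumulation expressed as percent of control, EC50 from concentration-response.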

[2] = system: total β-catenin in SW480 colorectal cells; test: cells; type: cell-based; conditions: Homo sapiens
How it was run: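 SW480 cells in growth medium (MEM alpha, 10% heat-inactivated FBS, 10 mM HEPES) treated with a 10-point, 3-fold dilution series of TNKS inhibitor for 40–48 h at 37 °C. Lysates run on an MSD sandwich immunoassay for total β-catenin, read by electrochemiluminescence.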

[3] = Homo sapiens, SW480, 24 h, SW480 cells, 24 hours
[4] = SW480 cells, 40 to 48 hours, top concentration 10 μM, read-out: SW480-Total β-Catenin IC50 IP
[5] = SW480, read-out: SW480-Total β-Catenin IC50 IP

6×HIS-tankyrase 1 (1091-1325), sequence (O95271 1091-1325): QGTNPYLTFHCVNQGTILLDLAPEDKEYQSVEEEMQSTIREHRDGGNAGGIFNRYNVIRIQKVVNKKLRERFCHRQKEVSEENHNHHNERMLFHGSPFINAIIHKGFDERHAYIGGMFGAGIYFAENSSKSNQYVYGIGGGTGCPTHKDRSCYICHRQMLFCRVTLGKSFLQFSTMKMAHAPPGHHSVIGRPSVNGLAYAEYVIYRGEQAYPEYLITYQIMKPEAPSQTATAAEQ

EC50 (Axin2 in SW480 cells; Homo sapiens, SW480, 24 h) | IC50 [2, 5] | Structure (SMILES) | IC50 [1] | EC50 (Axin2 in SW480 cells; [3]) | IC50 [2, 4] | EC50 (Axin2 in SW480 cells; SW480 cells, 24 hours)
– | – | CC1(C)OC(=O)N([C@H]2CC[C@H](n3c(=O)[nH]c4cnc(Cl)cc43)CC2)[C@H]1c1ccccc1 [Example 53, (S)-3-((1r,4S)-4-(6-chloro-2-oxo-2,3-dihydro-1H-imidazo[4,5-c]pyridin-1-yl)cyclohexyl)-5,5-dimethyl-4-phenyloxazolidin-2-one] | 6.52 nM | 291 nM | 284 nM | –
– | – | CC1(C)OC(=O)N([C@H]2CC[C@H](n3c(=O)[nH]c4cnc(C#N)cc43)CC2)[C@H]1c1ccccc1 [Example 54, 1-((1S,4r)-4-((S)-5,5-dimethyl-2-oxo-4-phenyloxazolidin-3-yl)cyclohexyl)-2-oxo-2,3-dihydro-1H-imidazo[4,5-c]pyridine-6-carbonitrile] | 7.42 nM | 725 nM | 605 nM | –
– | – | CC1(C)OC(=O)N([C@H]2CC[C@H](n3c(=O)[nH]c4cnccc43)CC2)[C@H]1c1ccc(F)cc1 [Example 55, (S)-4-(4-Fluorophenyl)-5,5-dimethyl-3-((1r,4S)-4-(2-oxo-2,3-dihydro-1H-imidazo[4,5-c]pyridin-1-yl)cyclohexyl)oxazolidin-2-one] | 2.95 nM | 100 nM | 145 nM | –
– | – | CC1(C)OC(=O)N([C@H]2CC[C@H](NC(=O)n3ccc4cccnc43)CC2)[C@H]1c1ccccc1 [Example 58, N-(trans-4-((4S)-5,5-dimethyl-2-oxo-4-phenyl-1,3-oxazolidin-3-yl)cyclohexyl)-1H-pyrrolo[2,3-b]pyridine-1-carboxamide] | 7.46 nM | 828 nM | 979 nM | –
– | – | CC1(C)OC(=O)N([C@H]2CC[C@H](n3c(=O)[nH]c4cc(C#N)ccc43)CC2)[C@H]1c1ccc(F)cc1 [Example 61, 1-((1S,4r)-4-((S)-4-(4-fluorophenyl)-5,5-dimethyl-2-oxooxazolidin-3-yl)cyclohexyl)-2-oxo-2,3-dihydro-1H-benzo[d]imidazole-5-carbonitrile] | 3.42 nM | 238 nM | 148 nM | –
– | – | CC1(C)OC(=O)N([C@H]2CC[C@H](N3Cc4cc(C#N)ccc4NC3=O)CC2)[C@H]1c1ccccc1 [Example 62, 3-((1S,4r)-4-((S)-5,5-dimethyl-2-oxo-4-phenyloxazolidin-3-yl)cyclohexyl)-2-oxo-1,2,3,4-tetrahydroquinazoline-6-carbonitrile] | 7.63 nM | 147 nM | 438 nM | –
– | – | CC1(C)OC(=O)N(c2ccc3c(c2)CCN(c2cccc4cccnc24)C3=O)[C@H]1c1ccccc1 [Example 63, (S)-5,5-dimethyl-3-(1-oxo-2-(quinolin-8-yl)-1,2,3,4-tetrahydroisoquinolin-6-yl)-4-phenyloxazolidin-2-one] | 7050 nM | > 25000 nM | > 10000 nM | –
– | – | CC1(C)OC(=O)N(c2ccc(-c3nnc4cc(-c5cncnc5)ccn34)cc2)[C@H]1c1ccccc1 [Example 66, (S)-5,5-dimethyl-4-phenyl-3-(4-(7-(pyrimidin-5-yl)-[1,2,4]triazolo[4,3-a]pyridin-3-yl)phenyl)oxazolidin-2-one] | 1970 nM | > 25000 nM | 9270 nM | –
– | – | CC1(C)OC(=O)N(c2ccc(-c3nnc4cc(C#N)ccn34)cc2)[C@H]1c1ccccc1 [Example 67, (S)-3-(4-(5,5-dimethyl-2-oxo-4-phenyloxazolidin-3-yl)phenyl)-[1,2,4]triazolo[4,3-a]pyridine-7-carbonitrile] | 5230 nM | > 25000 nM | > 10000 nM | –
– | – | CC1(C)OC(=O)N(c2ccc(-c3nnc4ccc(Cl)nn34)cc2)[C@H]1c1ccccc1 [Example 68, (S)-3-(4-(6-chloro-[1,2,4]triazolo[4,3-b]pyridazin-3-yl)phenyl)-5,5-dimethyl-4-phenyloxazolidin-2-one] | 1980 nM | > 25000 nM | > 10000 nM | –
– | – | CC1(C)OC(=O)N(c2ccc(-n3nnc4ccccc43)cc2)[C@H]1c1ccccc1 [Example 69, (S)-3-(4-(1H-benzo[d][1,2,3]triazol-1-yl)phenyl)-5,5-dimethyl-4-phenyloxazolidin-2-one] | 2100 nM | > 25000 nM | > 10000 nM | –
– | – | CC1(C)OC(=O)N(c2ccc(-c3cnc(N)nc3)cc2)[C@H]1c1ccccc1 [Example 70, (S)-3-(4-(2-aminopyrimidin-5-yl)phenyl)-5,5-dimethyl-4-phenyloxazolidin-2-one] | 1490 nM | > 25000 nM | > 10000 nM | –
– | – | CC1(C)OC(=O)N([C@H]2CC[C@@H](c3cnc(N)c(C4=NCCCN4)c3)CC2)[C@H]1c1ccccc1 [Example 76, (S)-3-((1s,4R)-4-(6-amino-5-(1,4,5,6-tetrahydropyrimidin-2-yl)pyridin-3-yl)cyclohexyl)-5,5-dimethyl-4-phenyloxazolidin-2-one] | 9840 nM | > 25000 nM | > 10000 nM | –
– | – | CC1(C)OC(=O)N([C@H]2CC[C@H](c3cnc(N)c(C4=NCCCN4)c3)CC2)[C@H]1c1ccccc1 [Example 77, (S)-3-((1r,4S)-4-(6-amino-5-(1,4,5,6-tetrahydropyrimidin-2-yl)pyridin-3-yl)cyclohexyl)-5,5-dimethyl-4-phenyloxazolidin-2-one] | 1650 nM | > 25000 nM | > 10000 nM | –
– | – | CC1(C)OC(=O)N(c2ccc(-n3cc(-c4ccccc4)[nH]c3=O)cc2)[C@H]1c1ccccc1 [Example 80, (4S)-5,5-dimethyl-3-(4-(2-oxo-4-phenyl-2,3-dihydro-1H-imidazol-1-yl)phenyl)-4-phenyl-1,3-oxazolidin-2-one] | 3080 nM | > 12500 nM | 1360 nM | > 25000 nM
840 nM | 767 nM | CC1(C)OC(=O)N([C@H]2CC[C@H](c3cc(-c4ncccn4)c[nH]c3=O)CC2)[C@H]1c1ccccc1 [Example 81, 3-(trans-4-((4S)-5,5-dimethyl-2-oxo-4-phenyl-1,3-oxazolidin-3-yl)cyclohexyl)-5-(2-pyrimidinyl)-2(1H)-pyridinone] | 11.4 nM | – | – | –
7130 nM | 1340 nM | CC1(C)OC(=O)N([C@H]2CC[C@H](c3cc(-c4ncccn4)c[nH]c3=O)CC2)[C@@H]1c1ccccc1 [Example 82, 3-(trans-4-((4R)-5,5-dimethyl-2-oxo-4-phenyl-1,3-oxazolidin-3-yl)cyclohexyl)-5-(2-pyrimidinyl)-2(1H)-pyridinone] | 195 nM | – | – | –
– | – | CC1(C)OC(=O)N([C@H]2CC[C@H](c3nnc(-c4ccccc4)o3)CC2)C1c1ccccc1 (stereo partly shown) [Example 84, 5,5-dimethyl-4-phenyl-3-((1r,4r)-4-(5-phenyl-1,3,4-oxadiazol-2-yl)cyclohexyl)oxazolidin-2-one] | 473 nM | 7600 nM | 4940 nM | –
– | – | CC1(C)OC(=O)N([C@H]2CC[C@H](c3nnc(-c4ccccc4)o3)CC2)[C@@H]1c1ccccc1 [Example 86, (R)-5,5-dimethyl-4-phenyl-3-((1r,4R)-4-(5-phenyl-1,3,4-oxadiazol-2-yl)cyclohexyl)oxazolidin-2-one] | 32.2 nM | 1660 nM | > 10000 nM | –
– | – | CC1(C)OC(=O)N(c2ccc(-c3cc4ccncc4[nH]c3=O)cc2)[C@H]1c1ccccc1 [Example 88, (S)-5,5-dimethyl-3-(4-(2-oxo-1,2-dihydro-1,7-naphthyridin-3-yl)phenyl)-4-phenyloxazolidin-2-one] | 11.8 nM | 285 nM | 473 nM | –
– | – | CC1(c2ccccc2)CN([C@H]2CC[C@H](n3c(=O)[nH]c4cnccc43)CC2)C(=O)O1 (stereo partly drawn) [Example 89, (R+S)-5-methyl-3-((1r,4R)-4-(2-oxo-2,3-dihydro-1H-imidazo[4,5-c]pyridin-1-yl)cyclohexyl)-5-phenyloxazolidin-2-one] | 17.2 nM | 7030 nM | 3440 nM | –
– | – | CC1(c2ccccc2)CN([C@H]2CC[C@@H](n3c(=O)[nH]c4cc(C#N)ccc43)CC2)C(=O)O1 (stereo partly drawn) [Example 92, 1-((1R,4r)-4-((R+S)-5-methyl-2-oxo-5-phenyloxazolidin-3-yl)cyclohexyl)-2-oxo-2,3-dihydro-1H-benzo[d]imidazole-5-carbonitrile] | 4.9 nM | 183 nM | 177 nM | –
– | – | CC1(C)OC(=O)N([C@H]2CC[C@H](c3cnc(N)c(C#N)c3)CC2)[C@H]1c1ccccc1 [Example 95, 2-amino-5-((1S,4r)-4-((S)-5,5-dimethyl-2-oxo-4-phenyloxazolidin-3-yl)cyclohexyl)nicotinonitrile] | 6.98 nM | 474 nM | 468 nM | –
– | – | CC1(C)OC(=O)N([C@H]2CC[C@@H](c3c[nH]c(=O)c(-c4ncccn4)c3)CC2)[C@H]1c1ccccc1 [Example 96, (S)-5,5-Dimethyl-3-((1s,4R)-4-(6-oxo-5-(pyrimidin-2-yl)-1,6-dihydropyridin-3-yl)cyclohexyl)-4-phenyloxazolidin-2-one] | 511 nM | > 25000 nM | > 10000 nM | –
– | – | CC1(C)OC(=O)N([C@H]2CC[C@H](c3c[nH]c(=O)c(-c4ncccn4)c3)CC2)[C@H]1c1ccccc1 [Example 97, (S)-5,5-Dimethyl-3-((1r,4S)-4-(6-oxo-5-(pyrimidin-2-yl)-1,6-dihydropyridin-3-yl)cyclohexyl)-4-phenyloxazolidin-2-one] | 267 nM | > 25000 nM | 4430 nM | –
